{
  "source": "patent US20230165252A1",
  "about": "“ACTIVE COMPOUND COMBINATIONS” (Bayer Aktiengesellschaft, priority 2020, published 2023)",
  "assay_type_in_all_cases": "cell-based",
  "key": {"Botrytis cinerea": {"tested_on": "Botrytis cinerea", "experiment": "in vitro-Test with Botrytis cinerea (microtiter growth inhibition)", "protocol": "(§1) The degree of efficacy expressed in % is denoted: 0% means an efficacy, which corresponds to that of the control, while an efficacy of 100% means that no disease is observed.\n(§2) If the actual fungicidal activity exceeds the calculated value, then the activity of the combination is super-additive, i.e. a synergistic effect exists. In this case, the efficacy, which was actually observed, must be greater than the value for the expected efficacy (E), that was calculated from the abovementioned formula.\n(§3) Example: In Vitro-Test with Fungal Microorganisms\n(§4) Wells of 96-well microtiter plates are filled with 10 μl of a preparation of test compound or compound combination in methanol+emulsifier alkylaryl-polyglycol-ether. Thereafter, the solvent is evaporated in a hood. At the next step, 100 μl of liquid potato dextrose medium is given into each well, that has been amended with an appropriate concentration of spores or mycelium suspension of the test fungus.\n(§5) With the aid of a photometer, the extinction in all wells is measured at the wavelength of 620 nm.\n(§6) The microtiter plates are incubated at 20° C. and 85% relative humidity. The inhibition of growth is determined again photometrically 3-5 days after the application. Efficacy is calculated in relation to the untreated control, 0% efficacy means fungal growth as high as in untreated control while 100% efficacy means no fungal growth is measured."}, "[1]": {"tested_on": "Ustilago segetum var. avenae", "experiment": "in vitro-Test with Ustilago segetum var. avenae (microtiter growth inhibition)", "protocol": "as §1, §2, §3, §4, §5, §6"}, "Parastagonospora nodorum": {"tested_on": "Parastagonospora nodorum", "experiment": "in vitro-Test with Parastagonospora nodorum (microtiter growth inhibition)", "conditions": "compound alone", "protocol": "as §1, §2, §3, §4, §5, §6"}, "Cercospora beticola": {"tested_on": "Cercospora beticola", "experiment": "in vitro-Test with Cercospora beticola (microtiter growth inhibition)", "conditions": "alone", "protocol": "as §1, §2, §3, §4, §5, §6"}, "Diaporthe citri": {"tested_on": "Diaporthe citri", "experiment": "in vitro-Test with Diaporthe citri (microtiter growth inhibition)", "protocol": "as §2, §3, §4, §5, §6"}, "Cordana musae": {"tested_on": "Cordana musae", "experiment": "in vitro-Test with Cordana musae (microtiter growth inhibition)", "conditions": "single substance", "protocol": "as §1, §2, §3, §4, §5, §6"}, "Alternaria alternate": {"tested_on": "Alternaria alternate", "experiment": "in vitro-Test with Alternaria alternate (microtiter growth inhibition)", "protocol": "as §1, §2, §3, §4, §5, §6"}, "Fusarium culmorum": {"tested_on": "Fusarium culmorum", "experiment": "in vitro-Test with Fusarium culmorum (microtiter growth inhibition)", "conditions": "Fusarium culmorum, read-out: Efficacy", "protocol": "as §1, §2, §3, §4, §5, §6"}, "[2]": {"conditions": "Diaporthe citri, applied alone, read-out: Efficacy"}, "[3]": {"conditions": "Cercospora beticola, read-out: Efficacy %"}, "[4]": {"conditions": "Diaporthe citri, read-out: Efficacy"}},
  "note": "Where “and” joins values, the source holds several entries; their conditions need not be identical. Identical values can stand only once. Like-named read-outs stand apart in the source and are kept apart here.",
  "data": [
    {"smiles": "CC(O)(Cn1cncn1)c1ccc(Oc2ccc(Cl)cc2)cc1C(F)(F)F", "note": "(stereo not shown) [(1.055) mefentrifluconazole]", "values": [
      {"measurement": "Efficacy %", "setting": "Botrytis cinerea; single active at 0.008 ppm", "result": 0, "unit": "%"},
      {"measurement": "Efficacy %", "setting": "Botrytis cinerea; single active at 0.04 ppm", "result": "9% and 0%"},
      {"measurement": "Efficacy %", "setting": "Botrytis cinerea; single active at 0.2 ppm", "result": "60% and 96%"},
      {"measurement": "Efficacy %", "setting": "Botrytis cinerea; single active at 1.0 ppm", "result": 100, "unit": "%"},
      {"measurement": "Efficacy %", "setting": "[1]; compound alone, 0.008 ppm", "result": 34, "unit": "%"},
      {"measurement": "Efficacy %", "setting": "[1]; compound alone, 0.04 ppm", "result": 87, "unit": "%"},
      {"measurement": "Efficacy %", "setting": "[1]; compound alone, 0.2 ppm", "result": 98, "unit": "%"},
      {"measurement": "Efficacy %", "setting": "[1]; compound alone, 1.0 ppm", "result": 100, "unit": "%"},
      {"measurement": "Efficacy %", "setting": "Parastagonospora nodorum; 0.008 ppm", "result": 81, "unit": "%"},
      {"measurement": "Efficacy %", "setting": "Parastagonospora nodorum; 0.04 ppm", "result": 98, "unit": "%"},
      {"measurement": "Efficacy %", "setting": "Parastagonospora nodorum; 0.2 ppm", "result": 99, "unit": "%"}
    ]},
    {"smiles": "COc1ccnc(C(=O)N[C@H]2COC(=O)[C@H](Cc3ccccc3)[C@@H](OC(=O)C(C)C)[C@H](C)OC2=O)c1OCOC(=O)C(C)C", "note": "[(3.025) fenpicoxamid]", "values": [
      {"measurement": "Efficacy %", "setting": "Botrytis cinerea; single active at 0.04 ppm", "result": 0, "unit": "%"},
      {"measurement": "Efficacy %", "setting": "Botrytis cinerea; single active at 0.2 ppm", "result": 13, "unit": "%"},
      {"measurement": "Efficacy %", "setting": "Botrytis cinerea; single active at 1.0 ppm", "result": 0, "unit": "%"},
      {"measurement": "Efficacy %", "setting": "Botrytis cinerea; single active at 5.0 ppm", "result": 34, "unit": "%"},
      {"measurement": "Efficacy %", "setting": "[1]; compound alone, 0.04 ppm", "result": 3, "unit": "%"},
      {"measurement": "Efficacy %", "setting": "[1]; compound alone, 0.2 ppm", "result": 0, "unit": "%"},
      {"measurement": "Efficacy %", "setting": "[1]; compound alone, 1.0 ppm", "result": 0, "unit": "%"},
      {"measurement": "Efficacy %", "setting": "[1]; compound alone, 5.0 ppm", "result": 0, "unit": "%"}
    ]},
    {"smiles": "N#Cc1sc2c(=O)c3ccccc3c(=O)c=2sc1C#N", "note": "[(5.010) dithianon]", "values": [
      {"measurement": "Efficacy %", "setting": "Botrytis cinerea; single active at 20 ppm", "result": 100, "unit": "%"},
      {"measurement": "inhibition of growth at 0.8 ppm", "setting": "[1]; compound alone, 0.8 ppm, read-out: Efficacy %", "result": 11, "unit": "%"},
      {"measurement": "inhibition of growth at 20 ppm", "setting": "[1]; compound alone, 20 ppm, read-out: Efficacy %", "result": 98, "unit": "%"}
    ]},
    {"smiles": "Cc1ccc(C(F)(F)CNC(=O)c2c(Oc3cccc(C4CC4)c3F)nnc(Cl)c2C)c(C)c1", "note": "[Compound 1-655]", "values": [
      {"measurement": "Efficacy %", "setting": "Cercospora beticola; 0.004 ppm", "result": 0, "unit": "%"},
      {"measurement": "Efficacy %", "setting": "Cercospora beticola; 0.020 ppm", "result": 0, "unit": "%"},
      {"measurement": "Efficacy %", "setting": "Cercospora beticola; 0.1 ppm", "result": 0, "unit": "%"},
      {"measurement": "Efficacy %", "setting": "Cercospora beticola; 0.5 ppm", "result": 7, "unit": "%"}
    ]},
    {"smiles": "Fc1ccc(Oc2ccnc3cc(Cl)cc(Cl)c23)cc1", "note": "[Compound 13.005, quinoxyfen]", "values": [
      {"measurement": "inhibition of growth at 0.4 ppm", "setting": "Diaporthe citri; [2]", "result": 0, "unit": "%"},
      {"measurement": "inhibition of growth at 10 ppm", "setting": "Diaporthe citri; [2]", "result": 54, "unit": "%"},
      {"measurement": "inhibition of growth at 0.08 ppm", "setting": "Cercospora beticola; [3]", "result": 0, "unit": "%"},
      {"measurement": "inhibition of growth at 0.4 ppm", "setting": "Cercospora beticola; Cercospora beticola, 0.4 ppm, read-out: Efficacy %", "result": 2, "unit": "%"},
      {"measurement": "inhibition of growth at 10 ppm", "setting": "Cercospora beticola; [3]", "result": 20, "unit": "%"},
      {"measurement": "inhibition of growth at 2 ppm", "setting": "Cordana musae; Neocordana musae, 2 ppm, read-out: Efficacy", "result": 1, "unit": "%"},
      {"measurement": "inhibition of growth at 10 ppm", "setting": "Cordana musae; Neocordana musae, 10 ppm, read-out: Efficacy", "result": 15, "unit": "%"}
    ]},
    {"smiles": "O=C1c2ccccc2C(=O)N1SC(Cl)(Cl)Cl", "note": "[folpet]", "values": [
      {"measurement": "inhibition of growth at 0.08 ppm", "setting": "Diaporthe citri; [4]", "result": 20, "unit": "%"},
      {"measurement": "inhibition of growth at 0.4 ppm", "setting": "Diaporthe citri; [4]", "result": 33, "unit": "%"},
      {"measurement": "inhibition of growth at 2 ppm", "setting": "Diaporthe citri; Diaporthe citri, 2 ppm, read-out: Efficacy", "result": 98, "unit": "%"},
      {"measurement": "inhibition of growth at 0.08 ppm", "setting": "Diaporthe citri; [2]", "result": 0, "unit": "%"},
      {"measurement": "inhibition of growth at 0.4 ppm", "setting": "Diaporthe citri; [2]", "result": 53, "unit": "%"},
      {"measurement": "inhibition of growth at 10 ppm", "setting": "Diaporthe citri; [2]", "result": 99, "unit": "%"},
      {"measurement": "inhibition of growth at 0.4 ppm", "setting": "Alternaria alternate; Alternaria, alone, read-out: Efficacy %", "result": 0, "unit": "%"},
      {"measurement": "inhibition of growth at 0.08 ppm", "setting": "Alternaria alternate; Alternaria, applied alone, 0.08 ppm, read-out: Efficacy", "result": 5, "unit": "%"},
      {"measurement": "inhibition of growth at 0.4 ppm", "setting": "Alternaria alternate; Alternaria, applied alone, read-out: Efficacy", "result": 1, "unit": "%"},
      {"measurement": "inhibition of growth at 2 ppm", "setting": "Alternaria alternate; Alternaria, applied alone, 2 ppm, read-out: Efficacy", "result": 100, "unit": "%"},
      {"measurement": "inhibition of growth at 10 ppm", "setting": "Alternaria alternate; Alternaria, applied alone, 10 ppm, read-out: Efficacy", "result": 100, "unit": "%"},
      {"measurement": "inhibition of growth at 0.08 ppm", "setting": "Cercospora beticola; [3]", "result": 7, "unit": "%"},
      {"measurement": "inhibition of growth at 2 ppm", "setting": "Cercospora beticola; Cercospora beticola, 2 ppm, read-out: Efficacy %", "result": 100, "unit": "%"},
      {"measurement": "inhibition of growth at 10 ppm", "setting": "Cercospora beticola; [3]", "result": 100, "unit": "%"},
      {"measurement": "inhibition of growth at 0.08 ppm", "setting": "[1]; single compound, 0.08 ppm, read-out: Efficacy %", "result": 12, "unit": "%"},
      {"measurement": "inhibition of growth at 0.4 ppm", "setting": "Fusarium culmorum; 0.4 ppm", "result": 0, "unit": "%"},
      {"measurement": "inhibition of growth at 2 ppm", "setting": "Fusarium culmorum; 2 ppm", "result": 62, "unit": "%"},
      {"measurement": "inhibition of growth at 10 ppm", "setting": "Fusarium culmorum; 10 ppm", "result": 100, "unit": "%"}
    ]},
    {"smiles": "CCO[PH](=O)[O-].CCO[PH](=O)[O-].CCO[PH](=O)[O-].[Al+3]", "note": "[fosetylaluminium]", "values": [
      {"measurement": "Efficacy", "setting": "Diaporthe citri; applied alone, 0.8 ppm", "result": 22, "unit": "%"},
      {"measurement": "Efficacy", "setting": "Diaporthe citri; applied alone, 4 ppm", "result": 31, "unit": "%"},
      {"measurement": "Efficacy", "setting": "Diaporthe citri; applied alone, 20 ppm", "result": 4, "unit": "%"},
      {"measurement": "Efficacy", "setting": "Diaporthe citri; applied alone, 100 ppm", "result": 0, "unit": "%"},
      {"measurement": "Efficacy %", "setting": "Alternaria alternate; 4 ppm, alone", "result": 8, "unit": "%"},
      {"measurement": "Efficacy %", "setting": "Alternaria alternate; 20 ppm, alone", "result": 27, "unit": "%"},
      {"measurement": "Efficacy %", "setting": "Alternaria alternate; 100 ppm, alone", "result": 37, "unit": "%"},
      {"measurement": "Efficacy", "setting": "Cordana musae; 0.8 ppm", "result": 0, "unit": "%"},
      {"measurement": "Efficacy", "setting": "Cordana musae; 4 ppm", "result": 12, "unit": "%"},
      {"measurement": "Efficacy", "setting": "Cordana musae; 20 ppm", "result": 0, "unit": "%"}
    ]}
  ]
}
